Reference: ChEMBL document CHEMBL1157089, “Antitrypanosomal cyclic polyketide peroxides from the Australian marine sponge Plakortis sp” (J Nat Prod, 2010)

Columns and labels:
[1] = Selectivity ratio of IC50 for HEK293 cells to IC50 for Trypanosoma brucei brucei BS427; assay type: ADME, cell-based; details: human, read-out: Ratio IC50
[2] = test system: Trypanosoma brucei brucei; test: Antitrypanosomal activity against Trypanosoma brucei brucei BS427 after 48 hrs by alamar blue assay; assay type: functional, organism-based; details: BS427, 48 h
HEK293 [3] = test: Cytotoxicity against HEK293 cells after 48 hrs by alamar blue assay; assay type: cell-based; details: Homo sapiens, HEK293, 48 h
HEK293 [4] = test: Cytotoxicity against HEK293 cells after at 83 uM 48 hrs by alamar blue assay; assay type: cell-based; details: human, hek293, 48 h

SMILES | selectivity ratio [1] | IC50 [2] [µM] | IC50 (HEK293 [3]) [µM] | Activity (HEK293 [4]) [%]
CC[C@@H](/C=C/C(C)=O)C[C@H](C)C[C@@]1(CC)C[C@@H](CC)[C@@H](CC(=O)O)OO1 | 105 | 0.049 | 0.0051 | –
CC[C@H](C[C@H](C)C[C@@]1(CC)C[C@@H](CC)[C@@H](CC(=O)O)OO1)C(=O)O | – | 0.94 | – | 100
C=C1CCC[C@@H]2[C@@H](CC[C@@]3(C)CC[C@H]([C@H](C)C(=O)O)OO3)[C@H](C)CC[C@@]12C [SIGMOSCEPTRELLIN B] | – | 0.51 | – | –
